Patent US20090227025A1, “Ex vivo human lung/immune system model using tissue engineering for studying microbial pathogens with lung tropism” (priority 2003, published 2009)
Where “and” joins values, the source holds several entries; their conditions need not be identical. Identical values can stand only once.

How the values were obtained:
influenza A virus = format: cell-based
[1] = test system: influenza A virus A/Marton/43 (H1N1); format: cell-based

With `CC(=O)N[C@H]1[C@H]([C@H](O)[C@H](O)CO)OC(C(=O)O)=C[C@@H]1NC(=N)N` [Neuraminidase inhibitor, 4-guanidino-2,4-dideoxy-2,3-dehydro-N-acetylneuraminic acid] the “virus localisation in treated TE cultures (staining, FIGS. 12A-F)” value (influenza A virus) was “accumulation of clumped virus” and the average virus titer [1] was 4.93 × 10^5 and 2.7 × 10^5.
